Measured values: the NIST ThermoML archive (doi:10.1007/s10765-005-8591-6)

Test: xn = mol fraction of the nth substance listed
Details: Fluid (supercritical or subcritical phases), Constant-volume piezometry

FC(F)C(F)(F)F [pentafluoroethane] + FCF
Details | mass density [kg/m3]
258.15 K, 2177 kPa, x2 = 0.3004 | 1342.88
258.16 K, 1554.4 kPa, x2 = 0.4995 | 1294.18
258.16 K, 4595.6 kPa, x2 = 0 | 1403.78
259.14 K, 2658.3 kPa, x2 = 0.6995 | 1234.39
259.15 K, 2403.7 kPa, x2 = 0.4995 | 1294.07
259.15 K, 2913.1 kPa, x2 = 0.3004 | 1342.77
261.15 K, 3061.1 kPa, x2 = 0.8997 | 1151.87
261.15 K, 4118.3 kPa, x2 = 0.4995 | 1293.85
261.15 K, 4474.9 kPa, x2 = 0.3004 | 1342.56
261.15 K, 4516.2 kPa, x2 = 0.6995 | 1234.17
261.15 K, 6579.8 kPa, x2 = 0 | 1403.47
262.14 K, 4056 kPa, x2 = 0.8997 | 1151.77
262.14 K, 7284.6 kPa, x2 = 0 | 1403.36
263.15 K, 5058.3 kPa, x2 = 0.8997 | 1151.67
263.15 K, 5848.5 kPa, x2 = 0.4995 | 1293.64
263.15 K, 6106.3 kPa, x2 = 0.3004 | 1342.34
263.15 K, 6362.9 kPa, x2 = 0.6995 | 1233.97
264.15 K, 3235.2 kPa, x2 = 0.098 | 1362.36
264.15 K, 6053.5 kPa, x2 = 0.8997 | 1151.57
264.15 K, 7288.1 kPa, x2 = 0.6995 | 1233.88
265.15 K, 7050.9 kPa, x2 = 0.8997 | 1151.47
265.15 K, 7767 kPa, x2 = 0.3004 | 1342.13
265.15 K, 8213.6 kPa, x2 = 0.6995 | 1233.78
265.17 K, 7585.9 kPa, x2 = 0.4995 | 1293.43
267.15 K, 9040.9 kPa, x2 = 0.8997 | 1151.28
267.15 K, 9274.4 kPa, x2 = 0.4995 | 1293.23
267.15 K, 10051 kPa, x2 = 0.6995 | 1233.58
267.16 K, 5301.3 kPa, x2 = 0.098 | 1362.04
267.16 K, 9382.9 kPa, x2 = 0.3004 | 1341.92
267.16 K, 10809 kPa, x2 = 0 | 1402.84
268.15 K, 10032 kPa, x2 = 0.8997 | 1151.19
268.2 K, 10152 kPa, x2 = 0.4995 | 1293.13
269.14 K, 10950 kPa, x2 = 0.4995 | 1293.04
269.15 K, 10983 kPa, x2 = 0.3004 | 1341.71
269.15 K, 11894 kPa, x2 = 0.6995 | 1233.38
269.16 K, 11031 kPa, x2 = 0.8997 | 1151.09
270.15 K, 7414.4 kPa, x2 = 0.098 | 1361.73
270.19 K, 13003 kPa, x2 = 0 | 1402.53
271.13 K, 12647 kPa, x2 = 0.4995 | 1292.84
271.15 K, 13008 kPa, x2 = 0.8997 | 1150.92
271.16 K, 13740 kPa, x2 = 0.6995 | 1233.2
273.08 K, 14311 kPa, x2 = 0.4995 | 1292.65
273.15 K, 9532.7 kPa, x2 = 0.098 | 1361.42
273.15 K, 14255 kPa, x2 = 0.3004 | 1341.32
273.15 K, 14990 kPa, x2 = 0.8997 | 1150.74
273.15 K, 15076 kPa, x2 = 0 | 1402.23
273.16 K, 15579 kPa, x2 = 0.6995 | 1233.01
274.14 K, 15969 kPa, x2 = 0.8997 | 1150.66
274.16 K, 16499 kPa, x2 = 0.6995 | 1232.92
275.13 K, 16066 kPa, x2 = 0.4995 | 1292.46
275.15 K, 16572 kPa, x2 = 0 | 1402.04
282.15 K, 15978 kPa, x2 = 0.098 | 1360.53
313.13 K, 2217.5 kPa, x2 = 0.3003 | 1050.39
313.15 K, 2820.6 kPa, x2 = 0.1 | 1097.54
318.14 K, 2959 kPa, x2 = 0.8992 | 900.95
318.15 K, 2921.8 kPa, x2 = 0.6998 | 949.66
318.15 K, 4528.5 kPa, x2 = 0.1 | 1097.17
318.18 K, 3901.3 kPa, x2 = 0.3003 | 1050.03
318.21 K, 3341.8 kPa, x2 = 0.4993 | 1000.3
323.13 K, 5212.3 kPa, x2 = 0.8992 | 900.63
323.14 K, 4867 kPa, x2 = 0.6998 | 949.34
323.15 K, 5129.3 kPa, x2 = 0.4993 | 999.96
323.16 K, 5645.9 kPa, x2 = 0.3003 | 1049.68
323.16 K, 6252.9 kPa, x2 = 0.1 | 1096.79
328.14 K, 6839.9 kPa, x2 = 0.6998 | 949.01
328.15 K, 7408.9 kPa, x2 = 0.3003 | 1049.33
328.15 K, 7986 kPa, x2 = 0.1 | 1096.43
328.16 K, 6969.7 kPa, x2 = 0.4993 | 999.62
328.16 K, 7509.2 kPa, x2 = 0.8992 | 900.31
333.13 K, 8834 kPa, x2 = 0.6998 | 948.69
333.13 K, 9793.4 kPa, x2 = 0.8992 | 900.01
333.14 K, 9188.4 kPa, x2 = 0.3003 | 1048.98
333.15 K, 8814.5 kPa, x2 = 0.4993 | 999.29
333.17 K, 9741.9 kPa, x2 = 0.1 | 1096.06
338.12 K, 12100 kPa, x2 = 0.8992 | 899.7
338.13 K, 10843 kPa, x2 = 0.6998 | 948.37
338.13 K, 10979 kPa, x2 = 0.3003 | 1048.63
338.14 K, 11489 kPa, x2 = 0.1 | 1095.7
338.19 K, 10690 kPa, x2 = 0.4993 | 998.95
343.12 K, 12860 kPa, x2 = 0.6998 | 948.05
343.12 K, 14419 kPa, x2 = 0.8992 | 899.4
343.13 K, 12772 kPa, x2 = 0.3003 | 1048.29
343.13 K, 13247 kPa, x2 = 0.1 | 1095.35
343.18 K, 12550 kPa, x2 = 0.4993 | 998.62
348.12 K, 14887 kPa, x2 = 0.6998 | 947.74
348.13 K, 16746 kPa, x2 = 0.8992 | 899.1
348.16 K, 14423 kPa, x2 = 0.4993 | 998.3
348.16 K, 15022 kPa, x2 = 0.1 | 1094.99
348.17 K, 14592 kPa, x2 = 0.3003 | 1047.95
353.11 K, 16917 kPa, x2 = 0.6998 | 947.43
353.13 K, 16290 kPa, x2 = 0.4993 | 997.98
353.14 K, 16386 kPa, x2 = 0.3003 | 1047.61
353.14 K, 16782 kPa, x2 = 0.1 | 1094.64
354.13 K, 16744 kPa, x2 = 0.3003 | 1047.54
354.15 K, 16672 kPa, x2 = 0.4993 | 997.91
